Assay results taken from US6552087B1 (Abbott GmbH & Co. KG, priority 1999, dated 2003).
Structures can show the parent of a compound that is named as a salt.

What was measured:
dopamine reuptake site [1] = molecular target: T1, dopamine reuptake site (Homo sapiens, UniProt Q01959); test: Dopamine reuptake site binding assay in human brain ([3H]GBR 12935); settings: for Hill slope, DA reuptake site: human putamen, [3H]GBR 12935, mean ± SEM
T1 construct: Frozen putamen was homogenised in ice-cold 0.25 M sucrose (1:40 w/v); from tissue; host or cells: human post-mortem putamen membranes
T1 sequence (Q01959 whole entry): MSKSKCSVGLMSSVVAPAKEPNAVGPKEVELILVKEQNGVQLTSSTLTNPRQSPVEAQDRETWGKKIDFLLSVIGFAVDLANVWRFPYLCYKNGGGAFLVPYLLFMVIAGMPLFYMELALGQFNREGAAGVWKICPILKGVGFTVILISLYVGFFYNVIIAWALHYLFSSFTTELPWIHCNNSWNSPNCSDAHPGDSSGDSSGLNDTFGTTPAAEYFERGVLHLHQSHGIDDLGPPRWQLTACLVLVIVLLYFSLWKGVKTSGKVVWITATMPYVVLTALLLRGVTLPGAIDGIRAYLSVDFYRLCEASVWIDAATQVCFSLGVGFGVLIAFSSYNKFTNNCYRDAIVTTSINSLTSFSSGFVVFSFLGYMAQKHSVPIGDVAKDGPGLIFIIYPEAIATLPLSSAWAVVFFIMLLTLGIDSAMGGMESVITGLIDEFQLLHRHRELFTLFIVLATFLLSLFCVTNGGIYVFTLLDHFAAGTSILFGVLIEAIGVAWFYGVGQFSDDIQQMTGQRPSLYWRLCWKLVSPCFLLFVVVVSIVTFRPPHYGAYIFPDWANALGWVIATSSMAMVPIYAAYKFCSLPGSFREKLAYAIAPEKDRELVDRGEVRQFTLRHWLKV
Experimental: (§1) The IC50 was calculated using the following formula: [formula]
The membrane pellet was resuspended in Tris buffer (1:40 w/v) and incubated at 37° C. for 10 min (to remove endogenous neurotransmitters) and recentrifuged at 35,000 g for 10 minutes. […] All centrifugations were carried out at 4° C.

rats = test: Prevention of reserpine-induced ptosis in rats; format: in vivo; settings: Rattus norvegicus, read-out: ED50, Reserpine test in rats
Experimental: A further standard test for antidepressants but relying on the ability of compounds to prevent rather than reverse reserpine-induced effects in rodents.
The compounds were tested as described in Prog. Neuro-Psychopharmacol. & Biol. Psychiat., 12, 575-584, Buckett et al. Rats were housed five per cage rather than six per cage and ptosis was assessed twice during 60 sec rather than during 30 sec.
(§2) Data from the reserpine reversal screen in mice and the reserpine prevention test in rats were used to calculate ED50 values for the reversal and prevention of reserpine-induced effects respectively.

dopamine reuptake site [2] = molecular target: T2, dopamine reuptake site (Rattus norvegicus, UniProt P23977); test: Dopamine reuptake site binding assay in rat brain ([3H]GBR 12935); settings: for Hill slope, DA reuptake site: rat striatum, [3H]GBR 12935, mean ± SEM
T2 construct: from tissue; host or cells: rat striatal membranes (Sprague-Dawley derived CD rats)
T2 sequence (P23977 whole entry): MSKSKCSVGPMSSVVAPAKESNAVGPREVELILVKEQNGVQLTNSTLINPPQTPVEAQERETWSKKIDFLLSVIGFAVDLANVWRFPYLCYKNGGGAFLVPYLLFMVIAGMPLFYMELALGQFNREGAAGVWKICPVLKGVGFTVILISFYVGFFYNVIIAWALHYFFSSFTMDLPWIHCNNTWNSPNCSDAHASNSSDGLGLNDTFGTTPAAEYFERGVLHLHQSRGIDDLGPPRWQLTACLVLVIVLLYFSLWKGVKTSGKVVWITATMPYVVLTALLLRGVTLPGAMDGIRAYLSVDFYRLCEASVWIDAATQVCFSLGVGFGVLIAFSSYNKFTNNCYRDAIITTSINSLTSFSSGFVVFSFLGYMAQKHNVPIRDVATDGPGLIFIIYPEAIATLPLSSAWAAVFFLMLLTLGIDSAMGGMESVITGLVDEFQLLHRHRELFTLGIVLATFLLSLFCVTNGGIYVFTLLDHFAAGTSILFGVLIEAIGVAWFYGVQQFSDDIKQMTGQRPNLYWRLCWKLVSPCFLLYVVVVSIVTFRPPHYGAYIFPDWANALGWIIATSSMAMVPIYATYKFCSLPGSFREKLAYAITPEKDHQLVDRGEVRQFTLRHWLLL
Experimental: as §1
Tissue was homogenised in ice-cold 0.32 M sucrose (1:80 w/v) using a motor driven teflon pestle (12 strokes, 800 rpm) and centrifuged at 1000 g for 12 minutes. […] All centrifugations were carried out at 4° C.

mice [3] = test: Porsolt test in mice; format: in vivo; settings: Mus musculus, dose required to increase mobility by 50%
Experimental: This test was carried out according to the procedure described in Porsolt, R. D. (1981). Behavioural despair. In: Antidepressants: Neurochemical, Behavioural and Clinical Perspectives, ed. […] New York: Raven Press.
(§3) The test compounds were dissolved in deionised water. Control groups of mice were treated with either deionised water or the standard antidepressant, amitriptyline (30 mg/kg p.o.).
Data from the Porsolt test were analysed in two ways.

mice [4] = test: Reserpine reversal screen in mice; format: in vivo; settings: Mus musculus, ip, reversal of reserpine-induced effects, reserpine 10 mg/kg i.p., read-out: ED50, Reserpine test in mice
Experimental: This was carried as described in U.S. Pat. No. 4,746,680 except that the dose of reserpine was 10 mg/kg (i.p.).
as §3, §2

[5] = molecular target: T3, noradrenaline reuptake site (Homo sapiens, UniProt P23975); test: Noradrenaline reuptake site binding assay in human brain ([3H]nisoxetine); settings: human thalamus, mean ± SEM
T3 construct: Frozen thalamus was homogenised in ice-cold 0.25 M sucrose (1:40 w/v); from tissue; host or cells: human post-mortem thalamus membranes
T3 sequence (P23975 whole entry): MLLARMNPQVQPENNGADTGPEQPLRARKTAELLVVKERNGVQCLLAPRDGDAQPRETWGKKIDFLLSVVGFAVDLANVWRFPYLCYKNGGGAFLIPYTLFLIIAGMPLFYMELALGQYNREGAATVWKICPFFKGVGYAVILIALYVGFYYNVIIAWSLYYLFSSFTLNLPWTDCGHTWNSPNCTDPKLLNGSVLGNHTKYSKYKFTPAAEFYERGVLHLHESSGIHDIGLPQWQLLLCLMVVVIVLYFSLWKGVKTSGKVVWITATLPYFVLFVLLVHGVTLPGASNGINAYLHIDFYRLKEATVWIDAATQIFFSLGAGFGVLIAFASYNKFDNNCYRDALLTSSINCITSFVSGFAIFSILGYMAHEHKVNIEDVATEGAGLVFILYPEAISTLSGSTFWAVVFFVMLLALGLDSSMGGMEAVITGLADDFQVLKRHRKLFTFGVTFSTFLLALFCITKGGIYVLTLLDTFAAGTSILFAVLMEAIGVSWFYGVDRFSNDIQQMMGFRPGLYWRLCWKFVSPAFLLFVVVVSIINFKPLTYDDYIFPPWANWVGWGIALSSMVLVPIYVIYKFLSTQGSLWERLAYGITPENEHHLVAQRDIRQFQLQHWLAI
Experimental: as §1
The pellet was resuspended in Tris buffer (1:40 w/v) and incubated at 37° C. for 10 min (to remove endogenous neurotransmitters) and recentrifuged at 35,000 g for 10 minutes. […] All centrifugations were carried out at 4° C.

[6] = molecular target: T4, noradrenaline reuptake site (Rattus norvegicus, UniProt Q63380); test: Noradrenaline reuptake site binding assay in rat brain ([3H]nisoxetine); settings: for Hill slope, NA reuptake site: rat frontal cortex, [3H]nisoxetine, mean ± SEM
T4 construct: Adult male CD rats were killed by cervical dislocation, brains removed and frontal cortices (120-150 mg) immediately dissected; from tissue; host or cells: rat frontal cortex membranes (Sprague-Dawley derived CD rats)
T4 sequence (Q63380 1-617): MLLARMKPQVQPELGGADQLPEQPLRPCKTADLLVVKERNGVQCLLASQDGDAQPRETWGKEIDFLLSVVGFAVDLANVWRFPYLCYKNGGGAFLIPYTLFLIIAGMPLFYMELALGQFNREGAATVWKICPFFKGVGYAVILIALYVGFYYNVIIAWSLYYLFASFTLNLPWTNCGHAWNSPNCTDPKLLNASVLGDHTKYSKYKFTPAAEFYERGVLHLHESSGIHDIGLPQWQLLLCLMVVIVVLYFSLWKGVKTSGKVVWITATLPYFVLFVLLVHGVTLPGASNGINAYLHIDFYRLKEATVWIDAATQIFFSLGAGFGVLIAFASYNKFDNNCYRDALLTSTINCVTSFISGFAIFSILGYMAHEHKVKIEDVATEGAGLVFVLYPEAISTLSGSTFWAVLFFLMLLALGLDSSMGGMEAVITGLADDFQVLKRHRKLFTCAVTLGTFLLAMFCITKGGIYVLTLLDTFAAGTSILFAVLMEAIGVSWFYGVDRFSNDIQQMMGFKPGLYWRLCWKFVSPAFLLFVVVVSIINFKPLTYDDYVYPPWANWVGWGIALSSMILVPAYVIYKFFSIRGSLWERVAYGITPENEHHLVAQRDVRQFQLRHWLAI
Experimental: as §1
The supernatant was discarded and the pellet rehomogenised in Tris buffer, 1:60 w/v, and centrifuged at 40,000 g for 10 minutes. This step was repeated a further twice so that, in total, the brain tissue was homogenised and centrifuged four times. […] All centrifugations were carried out at 4° C.

SMILES	Ki (dopamine reuptake site [1])	Hill slope, DA reuptake site (dopamine reuptake site [1])	ED50 (rats)	Ki (dopamine reuptake site [2])	Hill slope, DA reuptake site (dopamine reuptake site [2])	ED50 (mice [3])	ED50 (mice [4])	Hill slope, NA reuptake site [5]	Ki [6]	Hill slope, NA reuptake site [6]
CC(C)CC(N(C)C)C1(c2ccc(Cl)cc2)CCC1 (racemic) [Sibutramine, N,N-dimethyl-1-[1-(4-chlorophenyl)cyclobutyl]-3-methylbutylamine]	943 ± 64 nM	[1.15 ± 0.04]	~1.5 mg/kg	3070 ± 50 nM	[1.14 ± 0.04]	1.8 mg/kg	1.8 mg/kg	[1.34 ± 0.01]	86 ± 10 nM	[1.02 ± 0.02]
CC(C)C[C@@H](N(C)C)C1(c2ccc(Cl)cc2)CCC1 [(+)-Sibutramine, hydrochloride]	897 ± 125 nM	[1.29 ± 0.04]	0.7 mg/kg	1650 ± 175 nM	[1.74 ± 0.20]	2.4 mg/kg	~1 mg/kg	[0.97 ± 0.13]	3040 ± 233 nM	[1.02 ± 0.06]
CC(C)C[C@H](N(C)C)C1(c2ccc(Cl)cc2)CCC1.Cl [(−)-Sibutramine, (−)-N-{1-[1-(4-chlorophenyl)cyclobutyl]-3-methylbutyl}-N,N-dimethylamine hydrochloride]	2890 ± 363 nM	[1.25 ± 0.05]	59 mg/kg	4480 ± 65 nM	[2.07 ± 0.16]	9.8 mg/kg	~30 mg/kg	[1.30 ± 0.04]	23800 ± 615 nM	[1.02 ± 0.08]
